Experimental data: the supplement of paper PMC10307832

Legend:
Assay in all cases: relative viability (nuclei count vs DMSO), 5 days (fraction); higher = more cells survive
AT9283 + Alpelisib = compound: O=C(Nc1c[nH]nc1-c1nc2ccc(CN3CCOCC3)cc2[nH]1)NC1CC1 [AT9283] + Cc1nc(NC(=O)N2CCC[C@H]2C(N)=O)sc1-c1ccnc(C(C)(C)C(F)(F)F)c1 [Alpelisib] (partner 2 µM)
Summary of the method: (§1)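 Lung cancer cell lines were pin-tool dosed in 1536-well plates on the day after seeding, with either a lone drug or a fixed anchor-drug dose plus five library-drug doses (not always all listed) in √10 steps. Nuclei were counted on 4× images after 5 days. Relative viability is the ratio of treated-well to vehicle-well nuclei counts, with each value a median of duplicate plates.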

Erlotinib + Phenformin = compound: C#Cc1cccc(Nc2ncnc3cc(OCCOC)c(OCCOC)cc23)c1 [Erlotinib] + N=C(N)NC(=N)NCCc1ccccc1 [Phenformin] (partner 250 µM)
Summary of the method: as §1

Erlotinib + Trametinib = compound: C#Cc1cccc(Nc2ncnc3cc(OCCOC)c(OCCOC)cc23)c1 [Erlotinib] + CC(=O)Nc1cccc(-n2c(=O)n(C3CC3)c(=O)c3c(Nc4ccc(I)cc4F)n(C)c(=O)c(C)c32)c1 [Trametinib] (partner 0.02 µM)
Summary of the method: as §1

| Cell Line | relative viability (AT9283 + Alpelisib; first compound 0.003 µM) | relative viability (AT9283 + Alpelisib; first compound 0.03 µM) | relative viability (AT9283 + Alpelisib; first compound 0.09487 µM) | relative viability (AT9283 + Alpelisib; first compound 0.3 µM) | relative viability (Erlotinib + Phenformin; first compound 0.02 µM) | relative viability (Erlotinib + Phenformin; first compound 0.6325 µM) | relative viability (Erlotinib + Phenformin; first compound 2 µM) | relative viability (Erlotinib + Trametinib; first compound 0.02 µM) | relative viability (Erlotinib + Trametinib; first compound 0.2 µM) | relative viability (Erlotinib + Trametinib; first compound 0.6325 µM) | relative viability (Erlotinib + Trametinib; first compound 2 µM) | relative viability (Erlotinib + Phenformin; first compound 0.2 µM) |
| --- | --- | --- | --- | --- | --- | --- | --- | --- | --- | --- | --- | --- |
| NCI-H2347 | 1.16 | 1.04 | 0.606 | 0.451 | 0.511 | 0.326 | 0.326 | 0.268 | 0.482 | 0.275 | 0.285 | – |
| NCI-H3122 | 0.786 | 0.764 | 0.28 | 0.227 | 0.361 | 0.392 | 0.377 | 0.254 | 0.271 | 0.22 | 0.246 | 0.388 |
| HARA | 0.643 | 0.844 | 0.0814 | 0.0973 | 0.44 | 0.444 | 0.243 | 0.709 | 0.39 | 0.406 | 0.291 | 0.407 |
| HCC-78 | 0.286 | 0.275 | 0.165 | 0.18 | 0.657 | 0.684 | 0.531 | 0.768 | 0.524 | 0.683 | 0.58 | 0.681 |
| HCC-366 | 0.48 | 0.17 | 0.122 | 0.0346 | 0.599 | 0.601 | 0.567 | 0.335 | 0.294 | 0.277 | 0.215 | 0.661 |
| PC-14 | 0.992 | 0.893 | 0.554 | 0.1 | 0.278 | 0.177 | 0.139 | 0.185 | 0.0801 | 0.107 | 0.0898 | 0.171 |
| LK-2 | 0.936 | 0.379 | 0.21 | 0.236 | 0.623 | 0.513 | 0.39 | 0.867 | 0.543 | 0.842 | 0.586 | 0.275 |
| NCI-H358 | 0.901 | 0.171 | 0.163 | 0.152 | 0.349 | 0.234 | 0.178 | 0.143 | 0.114 | 0.12 | 0.105 | 0.277 |
| UMC-11 | 1.01 | 0.148 | 0.122 | 0.146 | 0.334 | 0.301 | 0.287 | 0.738 | 0.637 | 0.916 | 0.71 | 0.281 |
| LCLC-97TM1 | 0.198 | 0.151 | 0.11 | 0.111 | 0.405 | 0.439 | 0.379 | 0.197 | 0.197 | 0.163 | 0.168 | 0.412 |
| HOP-62 | 1.11 | 0.991 | 0.207 | 0.219 | 0.726 | 0.711 | 0.689 | 0.35 | 0.364 | 0.452 | 0.36 | – |
| NCI-H1703 | 0.361 | 0.214 | 0.174 | 0.223 | – | – | – | – | – | – | – | – |
| NCI-H520 | 1.01 | 0.338 | 0.274 | 0.239 | 0.751 | 0.646 | 0.706 | 0.689 | 0.666 | 0.744 | 0.687 | 0.525 |
| NCI-H2126 | 0.722 | 0.788 | 0.501 | 0.323 | 0.534 | 0.489 | 0.41 | 0.569 | 0.467 | 0.441 | 0.496 | 0.464 |
| NCI-H2087 | 1.22 | 0.658 | 0.259 | 0.165 | 0.516 | 0.506 | 0.304 | 0.219 | 0.185 | 0.19 | 0.138 | 0.483 |
| NCI-H1355 | 0.855 | 0.898 | 0.443 | 0.182 | 0.474 | 0.458 | 0.414 | 0.424 | 0.332 | 0.326 | 0.302 | 0.493 |
| Calu-6 | 0.986 | 0.23 | 0.26 | 0.246 | – | – | – | – | – | – | – | – |
| A-427 | 1.04 | 1.01 | 0.209 | 0.176 | 0.282 | 0.423 | 0.335 | 0.885 | 0.752 | 0.882 | 0.749 | 0.344 |
| NCI-H2170 | 0.806 | 0.638 | 0.205 | 0.217 | 0.422 | 0.386 | 0.324 | 0.884 | 0.924 | 0.977 | 0.773 | 0.463 |
| NCI-H460 | 0.516 | 0.43 | 0.0573 | 0.017 | 0.524 | 0.541 | 0.466 | 0.104 | 0.129 | 0.131 | 0.0721 | 0.512 |
| NCI-H2405 | 0.881 | 0.551 | 0.236 | 0.15 | 0.449 | 0.401 | 0.404 | 0.543 | 0.574 | 0.613 | 0.55 | 0.347 |
| NCI-H2023 | 0.634 | 0.501 | 0.34 | 0.131 | 0.435 | 0.471 | 0.378 | 0.558 | 0.369 | 0.418 | 0.32 | 0.418 |
| NCI-H1975 | 0.637 | 0.624 | 0.5 | 0.247 | 0.415 | 0.405 | 0.38 | 0.368 | 0.32 | 0.404 | 0.348 | 0.377 |
| EKVX | 0.934 | 0.726 | 0.356 | 0.218 | 0.245 | 0.127 | 0.137 | 0.367 | 0.2 | 0.191 | 0.162 | 0.205 |
| COR-L23 | 0.811 | 0.23 | 0.117 | 0.109 | 0.439 | 0.448 | 0.416 | 0.67 | 0.636 | 0.617 | 0.545 | 0.452 |
| NCI-H2228 | 0.831 | 0.676 | 0.176 | 0.136 | 0.414 | 0.357 | 0.257 | 0.436 | 0.708 | 0.49 | 0.381 | 0.338 |
| NCI-H647 | 1.11 | 0.355 | 0.128 | 0.124 | 0.586 | 0.632 | 0.353 | 0.653 | 0.367 | 0.556 | 0.422 | 0.476 |
| SW 900 | – | – | – | – | 0.55 | 0.679 | 0.487 | 0.867 | 0.761 | 0.771 | 0.631 | 0.565 |
